Laboratory results taken from patent US10227329B2, “Compounds useful for treating disorders related to RET” (BLUEPRINT MEDICINES CORPORATION, priority 2016, dated 2019).

Experiments:
wild type RET = wild type RET (Homo sapiens (Human), UniProt P07949); assay: RET Wild Type Assay at KM (Caliper electrophoretic mobility shift); assay type: biochemical; details: 25 μM ATP (KM)
RET V804L = RET V804L (Homo sapiens (Human), UniProt P07949, V804L); assay: RET V804L Gatekeeper Mutant Assay at KM (Caliper electrophoretic mobility shift); assay type: biochemical; details: 10 μM ATP (KM), read-out: V480L Mutant
Sequence of RET V804L (P07949 29-1114 V804L): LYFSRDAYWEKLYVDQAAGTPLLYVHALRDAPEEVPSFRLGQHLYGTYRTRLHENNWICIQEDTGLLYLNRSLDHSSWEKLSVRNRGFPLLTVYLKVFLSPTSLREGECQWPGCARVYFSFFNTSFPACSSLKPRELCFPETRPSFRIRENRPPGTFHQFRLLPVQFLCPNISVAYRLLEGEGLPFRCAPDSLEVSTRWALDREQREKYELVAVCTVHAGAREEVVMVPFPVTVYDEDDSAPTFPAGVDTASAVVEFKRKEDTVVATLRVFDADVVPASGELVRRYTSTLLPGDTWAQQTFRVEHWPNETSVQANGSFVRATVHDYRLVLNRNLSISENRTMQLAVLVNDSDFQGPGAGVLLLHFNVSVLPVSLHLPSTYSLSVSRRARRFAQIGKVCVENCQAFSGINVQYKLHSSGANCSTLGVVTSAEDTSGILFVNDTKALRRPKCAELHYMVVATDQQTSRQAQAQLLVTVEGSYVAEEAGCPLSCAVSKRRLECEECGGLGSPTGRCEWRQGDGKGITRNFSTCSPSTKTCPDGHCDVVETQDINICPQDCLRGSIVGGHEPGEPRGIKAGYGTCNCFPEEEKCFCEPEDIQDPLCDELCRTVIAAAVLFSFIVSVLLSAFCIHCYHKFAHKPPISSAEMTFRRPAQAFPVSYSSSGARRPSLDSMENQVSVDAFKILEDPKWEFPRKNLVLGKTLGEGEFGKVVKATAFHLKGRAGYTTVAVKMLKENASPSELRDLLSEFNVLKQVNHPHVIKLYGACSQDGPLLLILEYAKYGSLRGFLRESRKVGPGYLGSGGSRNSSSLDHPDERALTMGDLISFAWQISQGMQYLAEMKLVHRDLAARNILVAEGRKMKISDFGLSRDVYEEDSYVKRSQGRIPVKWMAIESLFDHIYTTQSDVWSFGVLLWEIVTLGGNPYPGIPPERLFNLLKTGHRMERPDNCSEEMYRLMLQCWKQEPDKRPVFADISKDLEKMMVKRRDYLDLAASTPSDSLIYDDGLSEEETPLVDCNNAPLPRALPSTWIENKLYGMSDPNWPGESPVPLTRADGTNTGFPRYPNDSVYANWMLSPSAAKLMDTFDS

Sequence of wild type RET (P07949 29-1114): as the sequence (P07949 29-1114 V804L) above, with L776V counted along it

Row | Compound | IC50 (wild type RET) | IC50 (RET V804L)
1 | Cc1cc(Nc2cc(C)[nH]n2)nc(N2CC(F)(C(=O)N[C@@H](C)c3ccc(-n4cc(F)cn4)nc3)C2)n1 [Compound 153] | < 10 nM | < 10 nM
2 | COC1(C(=O)N[C@@H](C)c2ccc(-n3cc(F)cn3)nc2)CN(c2nccc(Nc3cc(C)[nH]n3)n2)C1 [Compound 149] | < 10 nM | < 10 nM
3 | Cc1cc(Nc2cc(C)[nH]n2)nc(N2CCC(C)(C(=O)NCc3ccc(-n4cccn4)nc3)CC2)c1 [Compound 127] | < 10 nM | < 10 nM
4 | COC1(C(=O)N[C@@H](C)c2ccc(-n3cc(F)cn3)nc2)CCN(c2nc(Nc3cc(C)[nH]n3)cc(C)c2C#N)CC1 [Compound 227] | < 10 nM | < 10 nM
5 | CCC1(C(=O)NCc2ccc(-n3cc(F)cn3)nc2)CCN(c2nc(C)cc(Nc3cc(C)[nH]n3)n2)CC1 [Compound 190] | < 10 nM | < 10 nM
6 | CCOc1ccc(CNC(=O)C2(O)CCN(c3cc(C)cc(Nc4cc(C)[nH]n4)n3)CC2)cc1 [Compound 113] | 10 to 100 nM | < 10 nM
7 | COC1(C(=O)N[C@@H](C)c2ccc(-n3cc(F)cn3)nc2)CCN(c2nccc(Nc3cc(C)[nH]n3)n2)CC1 [Compound 196] | < 10 nM | < 10 nM
8 | COC1(C(=O)N(C)Cc2ccc(-n3cccn3)nc2)CCN(c2nc(C)cc(Nc3cc(C)[nH]n3)n2)CC1 [Compound 185] | < 10 nM | < 10 nM
9 | COc1ccc([C@H](C)NC(=O)C2(O)CCN(c3nc(C)cc(Nc4cc(C)[nH]n4)n3)CC2)cc1 [Compound 116] | > 100 nM | 10 to 100 nM
10 | Cc1cc(Nc2cc(C)[nH]n2)nc(N2CCC(F)(C(=O)N[C@@H](C)c3ccc(-n4cc(F)cn4)nc3)CC2)c1 [Compound 200] | < 10 nM | < 10 nM
11 | Cc1cc(Nc2cc(C3CC3)[nH]n2)nc(N2CCC(C)(C(=O)N[C@@H](C)c3ccc(-n4cc(F)cn4)nc3)CC2)c1 [Compound 225] | < 10 nM | < 10 nM
12 | COC1(C(=O)NCc2ccc(-n3cccn3)nc2)CN(c2nc(Nc3cc(C)[nH]n3)cc(C)c2C#N)C1 [Compound 156] | < 10 nM | < 10 nM
13 | CCC1(C(=O)NCc2ccc(-n3nc(C)cc3C)nc2)CCN(c2nc(C)cc(Nc3cc(C)[nH]n3)n2)CC1 [Compound 209] | < 10 nM | < 10 nM

Further lines, results first:

Row | IC50 (wild type RET) | IC50 (RET V804L) | Compound
14 | < 10 nM | < 10 nM | COC1(C(=O)N[C@@H](C)c2ccc(-n3cc(F)cn3)nc2)CN(c2cc(C(F)F)cc(Nc3cc(C)[nH]n3)n2)C1 [Compound 223]
15 | < 10 nM | < 10 nM | Cc1cc(Nc2cc(C)[nH]n2)nc(N2C[C@@H](C(=O)N[C@@H](C)c3ccc(-n4cc(F)cn4)nc3)[C@@H]2C)n1 [Compound 143]
16 | < 10 nM | < 10 nM | Cc1cc(Nc2cc(C)[nH]n2)nc(N2CC(F)(C(=O)NCc3ccc(-n4cccn4)nc3)C2)n1 [Compound 112]
17 | < 10 nM | < 10 nM | COC1(C(=O)NCc2ccc(-n3nc(C)cc3C)nc2)CCN(c2cc(C)cc(Nc3cc(C)[nH]n3)n2)CC1 [Compound 211]
18 | < 10 nM | < 10 nM | Cc1cc(Nc2cc(C)[nH]n2)nc(N2CC(C)(C(=O)NCc3ccc(-n4cccn4)nc3)C2)c1 [Compound 107, N-((6-(1H-pyrazol-1-yl)pyridin-3-yl)methyl)-3-methyl-1-(4-methyl-6-((5-methyl-1H-pyrazol-3-yl)amino)pyridin-2-yl)azetidine-3-carboxamide]
19 | < 10 nM | < 10 nM | COC1(C(=O)N[C@@H](C)c2ccc(-n3cc(F)cn3)nc2)CN(c2cc(C)nc(Nc3cc(C)[nH]n3)n2)C1 [Compound 170]
